Data reported in ChEMBL document CHEMBL1150984, “2,4,5- triarylimidazole inhibitors of IL-1 biosynthesis” (Bioorg Med Chem Lett, 1995).

Biological target: T1, Polyunsaturated fatty acid 5-lipoxygenase (Rattus norvegicus, UniProt P12527)
T1 sequence (P12527 whole entry): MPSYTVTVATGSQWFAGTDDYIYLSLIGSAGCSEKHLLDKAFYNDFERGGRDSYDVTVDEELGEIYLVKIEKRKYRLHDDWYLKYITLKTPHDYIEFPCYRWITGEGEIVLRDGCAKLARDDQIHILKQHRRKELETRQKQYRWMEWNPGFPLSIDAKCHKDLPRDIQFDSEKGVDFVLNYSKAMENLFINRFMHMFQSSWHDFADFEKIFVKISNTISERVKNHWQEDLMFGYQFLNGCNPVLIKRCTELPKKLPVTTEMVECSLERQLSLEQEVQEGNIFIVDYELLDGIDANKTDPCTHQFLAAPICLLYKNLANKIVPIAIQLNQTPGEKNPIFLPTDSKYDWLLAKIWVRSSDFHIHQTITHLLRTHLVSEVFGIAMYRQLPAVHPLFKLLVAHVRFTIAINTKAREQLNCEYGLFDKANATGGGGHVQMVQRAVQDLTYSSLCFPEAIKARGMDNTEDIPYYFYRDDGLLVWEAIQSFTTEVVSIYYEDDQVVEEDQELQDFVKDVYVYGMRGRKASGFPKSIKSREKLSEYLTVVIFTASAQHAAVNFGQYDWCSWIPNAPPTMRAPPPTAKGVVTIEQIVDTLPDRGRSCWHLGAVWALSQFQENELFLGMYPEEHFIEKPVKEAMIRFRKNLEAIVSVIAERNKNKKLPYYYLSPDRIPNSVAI
Assay: biochemical
Type: cell-based, RBL-1
Description: Inhibitory activity against 5-lipoxygenase enzyme from RBL-1 cells

SMILES | IC50
C[S+]([O-])c1ccc(-c2nc(-c3ccc(F)cc3)c(-c3ccnc4ccccc34)[nH]2)cc1 (stereo unspecified) | 7.2 µM
N#CN=C(N)Cc1ccc(-c2nc(-c3ccncc3)c(-c3ccc(F)cc3)[nH]2)cc1 | 3.8 µM
CN(C)c1ccc(-c2nc(-c3ccc(F)cc3)c(-c3ccncc3)[nH]2)cc1 | 5.6 µM
CC1(C)NC(c2ccc(-c3nc(-c4ccc(F)cc4)c(-c4ccncc4)[nH]3)cc2)=NO1 | 7.2 µM
Oc1ccccc1-c1nc(-c2ccc(F)cc2)c(-c2ccncc2)[nH]1 | 4.1 µM
CN(Cc1ccccc1)Cc1ccc(-c2nc(-c3ccncc3)c(-c3ccc(F)cc3)[nH]2)cc1 | 0.8 µM
